Tests used:
[1] = tested on: 293T cells; test: Fluorescence detection of Fluc-mRNA (cell transfection efficiency of LNP formulations); format: cell-based; details: for Relative light unit (RLU): LNP containing 0.3 μg Fluc-mRNA, 24 hours; for Multiples of values that equivalent to YK-201: RLU of YK-201 / RLU of the named lipid; for Multiples of values that equivalent to YK-202: RLU of YK-202 / RLU of the named lipid; for Multiples of values that equivalent to YK-209: RLU of YK-209 / RLU of the named lipid; for Ratio relative to SM-102: RLU of the named lipid / RLU of SM-102, times that of SM-102
Protocol: (§1) Cell recovery and passaging: 293T cells were recovered and cultured in culture dishes to the required cell number.
(§2) Plating: The cells in the culture dish were digested, counted, plated in a 96-well plate at 10,000 cells per well, or in a 12-well plate at 150,000 cells per well, and cultured overnight until the cells adhered to the wall.
(§3) Cell recovery and passage: The method was the same as in Example 3.
(§4) Plating: The method was the same as Example 3.
The LNP formulation containing 0.3 μg Fluc-mRNA (prepared according to Example 4, the LNP formulation carrier components were cationic lipids, neutral lipids, structured lipids and polymer-conjugated lipids at a molar ratio of 49:10:39.5:1.5, and the cationic lipids were cationic lipids listed in Table 1) was added to the cell culture medium of a 96-well plate, and cultured for 24 hours. After that, the corresponding reagents were added according to the instructions of the Gaussia Luciferase Assay Kit, and the fluorescence expression intensity of each well was detected by the IVIS fluorescence detection system. This experiment verified the transfection efficiency of the LNP formulation in the cell, and the specific detection results are shown in Tables 6-9.

[2] = tested on: 293T cells; test: Cell survival rate assay (CCK-8); format: cell-based; details: LNP containing 1.5 μg Fluc-mRNA, 24 hours, CCK-8
Protocol: as §1, §2, §3, §4
The LNP formulations containing 1.5 μg Fluc-mRNA (prepared according to Example 4, the LNP formulation carrier components are cationic lipids, neutral lipids, structured lipids and polymer-conjugated lipids at a molar ratio of 49:10:39.5:1.5, wherein the cationic lipids are the cationic lipids listed in Table 1) and the Lipofectamine 3000 formulation were added to the cell culture medium of the 96-well plate, and the culture was continued for 24 hours. Then, 10 μL of CCK-8 solution was added to each well, and the culture plate was incubated in the incubator for 1 hour, and the absorbance at 450 nm was measured by a microplate reader.

[3] = Encapsulation rate, drug loading concentration and total RNA concentration detection (RiboGreen); format: physicochemical; details: LNP formulation of the named lipid
Source text: Encapsulation rate is a key quality attribute of liposomes. It refers to the percentage of drug content encapsulated in the lipid bilayer to the total amount of drug added, which can reflect the degree of drug encapsulation in liposomes. The Chinese Pharmacopoeia stipulates that the encapsulation rate should usually not be less than 80%.
The drug loading capacity is the ratio of the amount of drug in the liposome to the total amount of drug and carrier in the liposome. The drug loading capacity directly affects the clinical application dose of the drug, so the larger the drug loading capacity, the more it can meet clinical needs. The drug loading concentration is proportional to the drug loading capacity, and the relative proportion of the drug loading concentration can represent the relative proportion of the drug loading capacity. The relative proportion of the total RNA concentration can represent the relative proportion of the amount of mRNA carried by the LNP formulation.
1×TE buffer, 0.1% Triton X-100 buffer, and RiboGreen reagent (1:200) and mRNA standard stock solution were prepared.
An appropriate amount of sample was taken and added to an appropriate amount of 1×TE buffer, which was diluted to a solution containing about 2.8 μg of the test sample per 1 mL. Then the sample was added to a 96-well plate, where 50 μL of the diluted test sample or mRNA standard stock solution was added to each well, and then added with 1×TE buffer and 0.1% Triton X-100 buffer. The samples were incubated at 37° C. for 10 minutes, and 100 μL of RiboGreen reagent (1:200) was added to each well of the 96-well plate. The plate was centrifuged, and read using an ELISA reader, and the data was processed.

[4] = Particle size and polydispersity index (PDI) of nanolipid particles, dynamic light scattering; format: physicochemical; details: LNP formulation prepared from the named cationic lipid, 25° C
Protocol: The particle size and polydispersity index (PDI) were determined by dynamic light scattering method using a Malvern laser particle size analyzer. 10 μL of liposome solution was diluted to 1 mL with RNase-free deionized water and added to a sample pool. Each sample was measured three times. The measurement conditions were: 90° scattering angle, 25° C.

[5] = tested on: female BALB/C mice; test: Mouse in vivo imaging of Fluc-mRNA LNP formulations; set-up: average radiation intensity (mRNA expression): unit not given here; details: 10 μg Fluc-mRNA LNP intramuscularly
Protocol: The LNP formulation containing 10 μg Fluc-mRNA (prepared according to Example 4) was injected intramuscularly into female BALB/C mice aged 4 to 6 weeks and weighing 17 to 19 g, and the mice were intraperitoneally injected with fluorescent imaging substrates at specific time points (6 h, 24 h, 48 h and 7 d) after administration. The mice moved freely for 5 minutes, and then the average radiation intensity (corresponding to the fluorescence expression intensity) of the protein expressed by the mRNA carried by the LNP in the mice was detected by IVIS Spectrum small animal in vivo imager. The test results are shown in Tables 14 to 17 and FIGS. 12 to 14.

CCCCCCCCC(CCCCCC)C(=O)OCCCCCCN(CCCCO)CCCCCCOC(=O)C(CCCCCC)CCCCCCCC (stereo not drawn) [ALC-0315, reference compound]
Relative light unit (RLU) [1]: 2147045 RLU
Multiples of values that equivalent to YK-201 [1]: 13.27
Multiples of values that equivalent to YK-202 [1]: 13.95
Multiples of values that equivalent to YK-209 [1]: 12.51
Ratio relative to SM-102 [1]: 1.29
Cell survival rate [2]: 49.96%
Drug loading concentration [3]: 26.05 µg/mL
Encapsulation rate [3]: 62.8%
Total RNA concentration [3]: 37.12 µg/mL
PDI [4]: 15.9%
Particle size [4]: 218 nm
average radiation intensity (mRNA expression) ([5]; 6 h): 842355
average radiation intensity (mRNA expression) ([5]; 24 h): 182350
average radiation intensity (mRNA expression) ([5]; 48 h): 38130
average radiation intensity (mRNA expression) ([5]; 7 d): 6588

CCCCCCC(CCCCCC)CCOC(=O)CCCCCCCN(CCO)CCCCCCCC(=O)OCCC(CCCCCC)CCCCCC [Compound 23, bis(3-hexylnonyl)8,8′-((2-hydroxyethyl)azadialkyl)dioctanoate, reference compound]
Relative light unit (RLU) [1]: 1332014 RLU
Multiples of values that equivalent to YK-201 [1]: 21.38
Multiples of values that equivalent to YK-202 [1]: 22.49
Ratio relative to SM-102 [1]: 0.80
Cell survival rate [2]: 70.10%
Drug loading concentration [3]: 20.7 µg/mL
Encapsulation rate [3]: 55.2%
Total RNA concentration [3]: 32.51 µg/mL
PDI [4]: 8.6%
Particle size [4]: 138 nm
average radiation intensity (mRNA expression) ([5]; 6 h): 594050
average radiation intensity (mRNA expression) ([5]; 24 h): 110870
average radiation intensity (mRNA expression) ([5]; 48 h): 32074
average radiation intensity (mRNA expression) ([5]; 7 d): 5827

CCCCCCCCCCCCC(O)CN(C)CCCCCC(=O)OCC(CCCCCC)CCCCCCCC (stereo not drawn) [HHMA, reference compound]
Relative light unit (RLU) [1]: 2099714 RLU
Multiples of values that equivalent to YK-201 [1]: 13.56
Multiples of values that equivalent to YK-202 [1]: 14.27
Ratio relative to SM-102 [1]: 1.26
Cell survival rate [2]: 65.56%
Drug loading concentration [3]: 30.6 µg/mL
Encapsulation rate [3]: 60.5%
Total RNA concentration [3]: 37.84 µg/mL
PDI [4]: 15.1%
Particle size [4]: 135 nm
average radiation intensity (mRNA expression) ([5]; 6 h): 638870
average radiation intensity (mRNA expression) ([5]; 24 h): 109650
average radiation intensity (mRNA expression) ([5]; 48 h): 29445
average radiation intensity (mRNA expression) ([5]; 7 d): 5312

CCCCCCCCCCCOC(=O)CCCCCN(CCO)CCCCCCCC(=O)OC(CCCCCCCC)CCCCCCCC [SM-102, reference compound]
Relative light unit (RLU) [1]: 1665874 RLU
Multiples of values that equivalent to YK-201 [1]: 17.10
Multiples of values that equivalent to YK-202 [1]: 17.98
Ratio relative to SM-102 [1]: 1.00
Cell survival rate [2]: 68.55%
Drug loading concentration [3]: 25.44 µg/mL
Encapsulation rate [3]: 62.3%
Total RNA concentration [3]: 35.27 µg/mL
PDI [4]: 19.2%
Particle size [4]: 145 nm
average radiation intensity (mRNA expression) ([5]; 6 h): 678870
average radiation intensity (mRNA expression) ([5]; 24 h): 115800
average radiation intensity (mRNA expression) ([5]; 48 h): 30560
average radiation intensity (mRNA expression) ([5]; 7 d): 5903

CCCCCCCCCCOC(=O)CCCN(CCO)CCCCCC(=O)OCC(CCCCCCCC)CCCCCCCC [YK-009, reference compound]
Relative light unit (RLU) [1]: 5125986 RLU
Multiples of values that equivalent to YK-201 [1]: 5.56
Multiples of values that equivalent to YK-202 [1]: 5.84
Multiples of values that equivalent to YK-209 [1]: 5.24
Ratio relative to SM-102 [1]: 3.08
Cell survival rate [2]: 72.88%
Drug loading concentration [3]: 26.86 µg/mL
Encapsulation rate [3]: 63.0%
Total RNA concentration [3]: 38.62 µg/mL
PDI [4]: 13.0%
Particle size [4]: 202 nm
average radiation intensity (mRNA expression) ([5]; 6 h): 1012400
average radiation intensity (mRNA expression) ([5]; 24 h): 767850
average radiation intensity (mRNA expression) ([5]; 48 h): 128570
average radiation intensity (mRNA expression) ([5]; 7 d): 10741

CCCCCCCCCCCOC(=O)CCCCCN(CCCCCCCC(=O)OC(CCCCCCCC)CCCCCCCC)CCN(CC)CCO [YK-204, heptadecan-9-yl-8-(2-((2-hydroxyethyl)(ethylamino))ethyl)(6-oxo-6-((undecanyloxy)hexyl)amino)octanoate]
Relative light unit (RLU) [1]: 363998 RLU
Multiples of values that equivalent to YK-201 [1]: 78.25
Multiples of values that equivalent to YK-202 [1]: 82.30
Multiples of values that equivalent to YK-209 [1]: 57.85
Ratio relative to SM-102 [1]: 0.22
Cell survival rate [2]: 42.57%
Drug loading concentration [3]: 32.62 µg/mL
Encapsulation rate [3]: 75.9%
Total RNA concentration [3]: 42.98 µg/mL
PDI [4]: 17.7%
Particle size [4]: 193 nm
average radiation intensity (mRNA expression) ([5]; 6 h): 35245
average radiation intensity (mRNA expression) ([5]; 24 h): 5230
average radiation intensity (mRNA expression) ([5]; 48 h): 2440
average radiation intensity (mRNA expression) ([5]; 7 d): 754
